Results taken from PMC8815882, “Screening the pandemic response box identified benzimidazole carbamates, Olorofim and ravuconazole as promising drug candidates for the treatment of eumycetoma” (PLoS Neglected Tropical Diseases, 2022).
Where two headings read alike, the source gives them in different places.

Test system: M. mycetomatis genome strain MM55
Assay: CLSI M38-A2 based in vitro susceptibility screening (XTT or resazurin), growth at fixed concentration
Format: cell-based, Madurella mycetomatis
Conditions: Madurella mycetomatis; for Percent fungal survival at 100 µM: read-out: Percentage survival at 100um, 100 uM A (second replicate column)
[1] = mean of three replicates, read-out: Percentage survival at 25um, 25 uM mean
[2] = replicate A, read-out: Percentage survival at 25um, 25 um A
[3] = replicate B, read-out: Percentage survival at 25um, 25 uM B
[4] = replicate C, read-out: Percentage survival at 25um, 25 uM C
[5] = mean of three replicates, read-out: Percentage survival at 100um, 100 uM mean
[6] = replicate 1, read-out: Percentage survival at 100um, 100 uM A (first replicate column)
[7] = replicate 3, read-out: Percentage survival at 100um, 100 uM A (third replicate column)
[8] = mean of three, M. mycetomatis MM55, read-out: Percentage survival at 25um, 25 uM mean
[9] = replicate A, M. mycetomatis MM55, read-out: Percentage survival at 25um, 25 um A
[10] = replicate B, M. mycetomatis MM55, read-out: Percentage survival at 25um, 25 uM B
[11] = replicate C, M. mycetomatis MM55, read-out: Percentage survival at 25um, 25 uM C
[12] = mean of three, M. mycetomatis MM55, read-out: Percentage survival at 100um, 100 uM mean
[13] = replicate 1, M. mycetomatis MM55, read-out: Percentage survival at 100um, 100 uM A (first replicate column)
[14] = replicate 2, M. mycetomatis MM55
[15] = replicate 3, M. mycetomatis MM55, read-out: Percentage survival at 100um, 100 uM A (third replicate column)

Compound | activity at 25 µM [1] [%] | activity at 25 µM [2] [%] | activity at 25 µM [3] [%] | activity at 25 µM [4] [%] | activity at 100 µM [5] [%] | activity at 25 µM [8] [%] | activity at 25 µM [9] [%] | activity at 25 µM [10] [%] | activity at 25 µM [11] [%] | activity at 100 µM [12] [%] | activity at 100 µM [13] [%] | Percent fungal survival at 100 µM [14] [%] | activity at 100 µM [15] [%] | also measured
CCCCCc1ccc(C(=O)NCCn2cc(CCCCCc3cnc(N)[nH]3)nn2)cc1 [MMV1580847] | 63.2 | 58 | 61.7 | 70 | 64.8 | – | – | – | – | – | – | – | – | activity at 100 µM [6]: 67%; Percent fungal survival at 100 µM (replicate 2): 95.2%; activity at 100 µM [7]: 32.1%
NC(=O)c1cnc2ccc(S(=O)(=O)c3ccccc3)cc2c1Nc1ccc(O)cc1 [MMV1580848] | – | – | – | – | – | 78.8 | 86.9 | 78.3 | 71.3 | 83.2 | 89.3 | 86.1 | 74.3 | –
C=CCc1cc(Cc2cnc(N)nc2N)cc(OC)c1O [MMV1580849] | – | 100 | 95.7 | 93.6 | – | – | – | – | – | – | – | – | – | activity at 25 µM (mean of replicates, read-out: Percentage survival at 25um, 25 uM mean): 96.4%; activity at 100 µM (mean of replicates, read-out: Percentage survival at 100um, 100 uM mean): 91.3%; activity at 100 µM (replicate 1, read-out: Percentage survival at 100um, 100 uM A): 101%; activity at 100 µM (replicate 2, read-out: Percentage survival at 100um, 100 uM A): 86.2%; activity at 100 µM (replicate 3, read-out: Percentage survival at 100um, 100 uM A): 86.7%
Fc1ccc(-n2cc(Cn3c(-c4cccc(F)c4)nc4ccccc43)nn2)cc1 [MMV1580850] | – | – | – | – | – | 60.8 | 55.7 | 55.1 | 71.7 | 85.9 | 71.4 | 60.3 | 126 | –
CCCCCOc1ccc(/C=C2\Oc3c(ccc(O)c3O)C2=O)c(O)c1 [MMV1580851] | – | – | – | – | – | 102 | 93.6 | 82.3 | 129 | 90 | 82.6 | 98.4 | 89 | –
CCCCc1ccc(-c2cc(C(=O)O)cc(-c3ccc(Cl)cc3)n2)cc1 [MMV1580852] | 33.8 | 3.56 | 69.1 | 28.7 | 4.07 | – | – | – | – | – | – | – | – | activity at 100 µM [6]: 5.06%; Percent fungal survival at 100 µM (replicate 2): -0.471%; activity at 100 µM [7]: 7.62%
O=C(Nc1cccc(C2=NCCN2)c1)c1ccc(-c2ccc(C(=O)Nc3cccc(C4=NCCN4)c3)cc2)cc1 [MMV1580853] | – | 92.1 | 94.2 | 67.1 | – | – | – | – | – | – | – | – | – | activity at 25 µM (mean, read-out: Percentage survival at 25um, 25 uM mean): 84.5%; activity at 100 µM (mean, read-out: Percentage survival at 100um, 100 uM mean): 55.8%; activity at 100 µM (replicate (first column), read-out: Percentage survival at 100um, 100 uM A): 6.17%; activity at 100 µM (replicate (second column), read-out: Percentage survival at 100um, 100 uM A): 92%; activity at 100 µM (replicate (third column), read-out: Percentage survival at 100um, 100 uM A): 69.2%
CCc1cc(O)c(Oc2cccnc2N)cc1F [MMV1580854] | – | – | – | – | – | 86.4 | 97.5 | 88.8 | 72.9 | 101 | 78.2 | 91.9 | 132 | –
O=C(O)c1sccc1S(=O)(=O)n1ccc2cc(Br)ccc21 [MMV1580855] | 98.9 | 101 | 108 | 88.3 | 97.9 | – | – | – | – | – | – | – | – | activity at 100 µM [6]: 128%; Percent fungal survival at 100 µM (replicate 2): 86.2%; activity at 100 µM [7]: 79.1%
Cc1ccccc1NC(=O)Nc1cccc([N+](=O)[O-])c1 [MMV1581029] | 89.2 | 95.8 | 97.7 | 74 | 92.5 | – | – | – | – | – | – | – | – | activity at 100 µM (first replicate column, read-out: Percentage survival at 100um, 100 uM A): 95.6%; activity at 100 µM (second replicate column, read-out: Percentage survival at 100um, 100 uM A): 104%; activity at 100 µM (third replicate column, read-out: Percentage survival at 100um, 100 uM A): 77.8%
CN(C(=O)C1(c2ccc(Cl)cc2)CCC1)c1ccccc1 [MMV1581030] | – | – | – | – | – | – | – | – | – | – | – | – | – | activity at 25 µM (mean of replicates, MM55, read-out: Percentage survival at 25um, 25 uM mean): 63.9%; activity at 25 µM (replicate A, MM55, read-out: Percentage survival at 25um, 25 um A): 61.1%; activity at 25 µM (replicate B, MM55, read-out: Percentage survival at 25um, 25 uM B): 107%; activity at 25 µM (replicate C, MM55, read-out: Percentage survival at 25um, 25 uM C): 23.2%; activity at 100 µM (mean of replicates, MM55, read-out: Percentage survival at 100um, 100 uM mean): 9.02%; activity at 100 µM (replicate 1, MM55, read-out: Percentage survival at 100um, 100 uM A): 16%; activity at 100 µM (replicate 2, MM55, read-out: Percentage survival at 100um, 100 uM A): 1.46%; activity at 100 µM (replicate 3, MM55, read-out: Percentage survival at 100um, 100 uM A): 9.58%
